Data published in US7368414B2, “Fungicidal mixtures” (BASF Aktiengesellschaft, priority 2000, dated 2008).

System: Plasmopara viticola
Test: Activity against downy mildew of grapes caused by Plasmopara viticola (protective, potted vines)
Format: in vivo
Conditions: individual active compound
Experimental: The active compounds, separately or together, were formulated as 10% emulsion in a mixture of 63% by weight of cyclohexanone and 27% by weight of emulsifier, and diluted with water to the desired concentration.
Evaluation was carried out by determining the infected leaf areas in percent. These percentages were converted into efficacies. The efficacy (w) was calculated as follows using Abbot's formula: w=(1−α)·100/β • α corresponds to the fungal infection of the treated plants in % and • β corresponds to the fungal infection of the untreated (control) plants in %
An efficacy of 0 means that the infection level of the treated plants corresponds to that of the untreated control plants; an efficacy of 100 means that the treated plants were not infected.
The expected efficacies of the mixtures of the active compounds were determined using Colby's formula [R. S. Colby, Weeds 15, 20-22 (1967)] and compared with the observed efficacies. Colby Formula: E=x+y−x·y/100 • E expected efficacy, expressed in % of the untreated control, when using the mixture of the active compounds A and B at the concentrations a and b • x efficacy, expressed in % of the untreated control, when using the active compound A at a concentration a • y efficacy, expressed in % of the untreated control, when using the active compound B at a concentration b
Leaves of potted vines of the cultivar “Müller-Thurgau” were sprayed to run off point with an aqueous preparation of active compound which had been prepared from a stock solution comprising 10% of active compound, 85% of cyclohexanone and 5% of emulsifier. The next day, the undersides of the leaves were inoculated with an aqueous zoospore suspension of Plasmopara viticola. The vines were then initially placed at 24° C. in a chamber saturated with water vapor for 48 hours and then for 5 days in a greenhouse at 20-30° C. After this period of time, the plants were once more placed into a moist chamber for 16 hours to promote sporangiophore eruption. The extent of the development of the disease on the undersides of the leaves was then determined visually.

Cc1ccc(-c2c(Cl)nc(C#N)n2S(=O)(=O)N(C)C)cc1 [IIa, cyazofamid]
Efficacy in % of the untreated control (0.25 ppm in the spray liquor, vines Müller-Thurgau): 14% | Efficacy in % of the untreated control (1 ppm in the spray liquor): 57% | Efficacy in % of the untreated control (4 ppm in the spray liquor): 71%
